From US10005744B2, “Compounds for the treatment or prevention of breast cancer” (JIANGSU ATOM BIOSCIENCE AND PHARMACEUTICAL CO., LTD., priority 2015, dated 2018)
Like-named read-outs stand apart in the source and are kept apart here.

Key:
Format in all cases: cell-based
[1] = tested on: MCF-7; assay: Growth inhibition of breast cancer cell line MCF-7 (Alamar Blue); settings: Homo sapiens; for IC50: read-out: Half inhibitory concentration (IC50) against MCF-7
Description: (§1) 1. Breast cancer cells MCF-7 (Luminal type cells) and MDA-MB-468 (basal-like cells, which are of the triple-negative type without epithelial-mesenchymal transition) were purchased from Cell Resource Center of Shanghai Institutes for Biological Sciences of the Chinese Academy of Sciences, and cultured with DMEM culture medium(containing 10% of fetal bovine serum, 10 U/mL of penicillin and 0.1 mg/mL of streptomycin) in a 5% CO2 incubator at 37[…] until the cell density was about 90%.
(§2) 2. The cells were inoculated to a 96-well plate at a cell population of 3×10^3/well and then cultured in the 5% CO2 incubator for 24 h at 37[…].
(§3) 3. Tested compounds of different concentration gradients were prepared by using the DMEM culture medium, and added into wells at 100 μL/well as tested compounds wells; and, the DMEM culture liquid was added into wells at 100 μL/well as negative control wells. At 37[…] and in the 5% CO2 incubator, the MCF-7 cells were cultured for 120 h, and MDA-MB-468 cells were cultured for 72 h.
(§4) 4. Resazurin (15 mg/50 mL), Methylene Blue (25 mg/10 mL), Potassium ferricyanide (0.329 g/100 mL) and Potassium ferrocyanide (0.422 g/100 mL) were dissolved into PBS (0.1 M, pH=7.4) to obtain Alamar Blue solution for standby.
(§5) 5. The cells were washed with PBS (0.1 M, pH=7.4) for two times, and the Alamar Blue solution was added into wells at 100 μL/well; and 100 μL of Alamar Blue solution was added into wells without cells to serve as blank control cells. The 96-well plate was placed into the 5% CO2 incubator at 37[…] and cultured for 3 h.
(§6) 6. The fluorescence value of the cells was detected at 530/590 nm by ELIASA Victor X4 (Perkin Elmer). The fluorescence value at each concentration was repetitively measured for 4 times to obtain an average value and a standard deviation. The cell viability was calculated by the following formula[User2]: […]
(§7) 7. The half inhibitory concentration (IC50) of the tested compounds againstt he cell lines was obtained according to the cell viability by Prism Graph software.

[2] = tested on: human normal liver cells WRL-68; assay: Growth inhibition of human normal liver cells WRL-68
Description: as §1, §2, §3, §4, §5, §6, §7
(§8) Growth inhibition tests of the tested compounds 7, 17, 18, 34, 35 and 41 on the human lung cancer cells H1299, human colon cancer cells HT29, human liver cancer cells SK-HEP-1, human colon cancer cells HCT116, human normal liver cells L-02 and WRL-68 were conducted, and the method refers to Embodiment 19 “Inhibition effects of the compounds on the growth of breast cancer cells MCF-7 and MDA-MB-468”.

[3] = tested on: human normal liver cells L-02; assay: Growth inhibition of human normal liver cells L-02
Description: as §1, §2, §3, §4, §5, §6, §7, §8

[4] = tested on: human colon cancer cells HCT116; assay: Growth inhibition of human colon cancer cells HCT116
Description: as §1, §2, §3, §4, §5, §6, §7, §8

[5] = tested on: human liver cancer cells SK-HEP-1; assay: Growth inhibition of human liver cancer cells SK-HEP-1
Description: as §1, §2, §3, §4, §5, §6, §7, §8

[6] = tested on: human lung cancer cells H1299; assay: Growth inhibition of human lung cancer cells H1299
Description: as §1, §2, §3, §4, §5, §6, §7, §8

[7] = tested on: MDA-MB-468; assay: Growth inhibition of breast cancer cell line MDA-MB-468 (Alamar Blue); settings: Homo sapiens, read-out: Half inhibitory concentration (IC50) against MDA-MB-468
Description: as §1, §2, §3, §4, §5, §6, §7

[8] = tested on: human colon cancer cells HT29; assay: Growth inhibition of human colon cancer cells HT29
Description: as §1, §2, §3, §4, §5, §6, §7, §8

[9] = WRL68, read-out: half inhibitory concentration (IC50)
[10] = L02, read-out: half inhibitory concentration (IC50)
[11] = HCT-116, read-out: half inhibitory concentration (IC50)
[12] = SK-HEP1, read-out: half inhibitory concentration (IC50)
[13] = NCI-H1299, read-out: half inhibitory concentration (IC50)
[14] = HT-29, read-out: half inhibitory concentration (IC50)

Row | SMILES | IC50 ([1]; MCF7, 120 h) [µM] | IC50 [2, 9] [µM] | IC50 [3, 10] [µM] | IC50 [4, 11] [µM] | IC50 [5, 12] [µM] | IC50 [6, 13] [µM] | IC50 ([7]; MDA-MB-468, 72 h) [µM] | IC50 [8, 14] [µM] | IC50 ([2]; WRL68, WRL-68 cells, range stated over the six cell lines, read-out: half inhibitory concentration (IC50)) [µM] | IC50 ([3]; L02, L-02 cells, range stated over the six cell lines, read-out: half inhibitory concentration (IC50)) [µM] | IC50 ([4]; HCT-116, HCT116 cells, range stated over the six cell lines, read-out: half inhibitory concentration (IC50)) [µM] | IC50 ([5]; SK-HEP1, SK-HEP-1 cells, range stated over the six cell lines, read-out: half inhibitory concentration (IC50)) [µM] | IC50 ([1]; MCF7, MCF-7 cells cultured 120 h with compound, Alamar Blue) [µM] | inhibition at 0.5 µM ([1]; MCF7, highest concentration, 500 nM, read-out: inhibition rate to MCF-7 cell line) [%] | IC50 ([6]; NCI-H1299, H1299 cells, range stated over the six cell lines, read-out: half inhibitory concentration (IC50)) [µM] | IC50 ([7]; MDA-MB-468 cells cultured 72 h with compound, Alamar Blue) [µM] | IC50 ([8]; HT-29, HT29 cells, range stated over the six cell lines, read-out: half inhibitory concentration (IC50)) [µM]
1 | Cc1ccc2[se]c(-c3ccc(N)c(C)c3)nc2c1 [Compound 26, 2-methyl-4-(5-methylbenzoselenazole-2-yl)aniline] | 0.134 |  |  |  |  |  |  |  |  |  |  |  |  |  |  |  | 
2 | Nc1ccc(-c2nc3cc(F)ccc3[se]2)cc1F [Compound 34, 2-fluoro-4-(5-fluorobenzoselenazole-2-yl)aniline] | 0.0524 | > 10 | > 10 | > 10 | > 10 | > 10 | 0.0291 | > 10 |  |  |  |  |  |  |  |  | 
3 | Nc1c(F)cc(-c2nc3cc(F)ccc3[se]2)cc1Br [Compound 35, 2-bromo-6-fluoro-4-(5-fluorobenzoselenazole-2-yl)aniline] | 0.0416 | > 10 | > 10 | > 10 | > 10 | > 10 | 0.0397 | > 10 |  |  |  |  |  |  |  |  | 
4 | CC(=O)O[C@H]1C(=O)[C@@]2(C)[C@H]([C@H](OC(=O)c3ccccc3)[C@]3(O)C[C@H](OC(=O)[C@H](O)[C@@H](NC(=O)c4ccccc4)c4ccccc4)C(C)=C1C3(C)C)[C@]1(OC(C)=O)CO[C@@H]1C[C@@H]2O [Paclitaxel, paclitaxel, reference compound] |  |  |  |  |  |  |  |  | 0.00159 to 0.0153 | 0.00159 to 0.0153 | 0.00159 to 0.0153 | 0.00159 to 0.0153 | 0.0046 | 70 | 0.00159 to 0.0153 | 0.00443 | 0.00159 to 0.0153
5 | Nc1ccc(-c2nc3cc(F)ccc3[se]2)cc1Br [Compound 14, 2-bromo-4-(5-fluorobenzoselenazole-2-yl)aniline] | 0.188 |  |  |  |  |  | 0.138 |  |  |  |  |  |  |  |  |  | 
6 | Cc1cc(-c2nc3cc(F)ccc3[se]2)cc(Br)c1N [Compound 18, 2-bromo-4-(5-fluorobenzoselenazole-2-yl)-6-methylaniline] | 0.0919 | > 10 | > 10 | > 10 | > 10 | > 10 | 0.0709 | > 10 |  |  |  |  |  |  |  |  | 
7 | Cc1ccc(-c2nc3cc(F)ccc3[se]2)cc1N [Compound 37, 5-(5-fluorobenzoselenazole-2-yl)-2-methylaniline] | 0.45 |  |  |  |  |  | 0.114 |  |  |  |  |  |  |  |  |  | 
8 | Cc1cc(-c2nc3cc(F)ccc3[se]2)ccc1N [Compound 17, 4-(5-fluorobenzoselenazole-2-yl)-2-methylaniline] | 0.0728 | > 10 | > 10 | > 10 | > 10 | > 10 | 0.0585 | > 10 |  |  |  |  |  |  |  |  | 
9 | Nc1c(F)cc(-c2nc3cc(F)ccc3[se]2)cc1F [Compound 41, 2,6-difluoro-4-(5-fluorobenzoselenazole-2-yl)aniline] | 0.0568 | > 10 | > 10 | > 10 | > 10 | > 10 | 0.0201 | > 10 |  |  |  |  |  |  |  |  | 
10 | Nc1ccc(-c2nc3ccccc3[se]2)cc1Br [Compound 7, 4-(benzoselenazole-2-yl)-2-bromoaniline] | 0.0567 | > 10 | > 10 | > 10 | > 10 | > 10 | 0.0741 | > 10 |  |  |  |  |  |  |  |  | 
